Earlier results, collected in paper PMC3483082 (Chembiochem : a European journal of chemical biology, 2012).

Tests used:
CDK1 = settings: read-out: IC50 CDK1
CDK2 = settings: read-out: IC50 (CDK2 inhibitor)

Compound: CCN(CC)CCNC(=O)c1c(C)[nH]c(/C=C2\C(=O)Nc3ccc(F)cc32)c1C [Hit 1, sunitinib]
- IC50 (CDK1): 2.6 µM
